Measurements reported in patent US12544395B2, “Combination compositions comprising a beta-lactamase inhibitor and uses thereof” (priority 2018, dated 2026).
Converted amounts (≈) assume the structure as drawn. “And” between values parts separate entries of the source, which are not always exact repeats. Identical values can stand only once. Like-named read-outs stand apart in the source and are kept apart here.

Key:
[1] = system: E. coli (UNT-204-1, TEM-1 plus CTX-M-15 producing); assay type: in vivo, C3H/HeJ mice; conditions: for Log10 Change in CFU/Sample vs. untreated controls, Day 7, Bladder / Log10 Change in CFU/Sample vs. untreated controls, Day 7, Kidneys / Log10 Change in CFU/Sample vs. untreated controls, Day 7, Urine: SC, BID, 3 days
[2] = system: K. pneumoniae UNT-023 (KPC-2); experiment: MIC vs. septicemia model strain; assay type: cell-based; conditions: Klebsiella pneumoniae, read-out: MIC vs. K. pneumoniae UNT-023 (KPC-2)
[3] = system: ESBL-expressing Enterobacteriaceae (n = 33); experiment: Broth microdilution MIC, ceftibuten/Compound 2 vs IV comparators; assay type: cell-based
[4] = system: AmpC/CMY-expressing Enterobacteriaceae (n = 44); experiment: as above; assay type: cell-based
[5] = system: ceftibuten-resistant Enterobacteriaceae expressing ESBL (n=20); experiment: Checkerboard broth microdilution MIC, BLI concentration impact; assay type: cell-based; conditions: for MIC50: read-out: CTB MIC50; for MIC90: read-out: CTB MIC90
Description: (§1) Minimum inhibitory concentrations (MICs) were determined by broth microdilution method following CLSI guidelines. Tested strains were ceftibuten-resistant Enterobacteriaceae expressing ESBL (n=20), KPC (n=20), OXA-48 (n=20) and/or Class C (n=20) beta-lactamases. For each isolate, one microtiter plate was prepared and formatted as a checkerboard with the BLI (Compound 2 or clavulanic acid) titrated down the plate and ceftibuten titrated across the plate. Each agent was also tested alone. MICs were determined as the well with the lowest concentration of ceftibuten without visible growth at each concentration of BLI.

[6] = system: ceftibuten-resistant Enterobacteriaceae expressing OXA-48 (n=20); experiment: as above; assay type: cell-based; conditions: for MIC50: read-out: CTB MIC50; for MIC90: read-out: CTB MIC90
Description: as §1

[7] = system: ceftibuten-resistant Enterobacteriaceae, All isolates; experiment: as above; assay type: cell-based; conditions: for MIC50: read-out: CTB MIC50; for MIC90: read-out: CTB MIC90
Description: as §1

[8] = system: ceftibuten-resistant Enterobacteriaceae expressing Class C (n=20); experiment: as above; assay type: cell-based; conditions: for MIC50: read-out: CTB MIC50; for MIC90: read-out: CTB MIC90
Description: as §1

[9] = Metabolic stability in plasma; assay type: in vitro ADME, beagle dog; conditions: beagle, plasma; Dog; test conc. 3 μM
[10] = system: 21 beta-lactamase-producing Enterobacteriaceae strains; experiment: Neutropenic mouse thigh infection model, dose ranging; assay type: in vivo, mice
[11] = Metabolic stability in liver S9; assay type: in vitro ADME, CD-1 mouse; conditions: CD-1, liver S9; Mouse; test conc. 3 μM
p99 AmpC = target: T1, p99 AmpC (Enterobacter cloacae, UniProt P05364); assay type: biochemical
T1 construct: expressed as native untagged proteins; made in house; host or cells: E. coli BL21(DE3)
Description: Assays (200 μl final volume) were performed in PBS in triplicate using 96-well microtiter plates. Cephalothin was used as the substrate for p99 AmpC and CTX-M-15 (50 μM for p99 AmpC; 75 μM for CTX-M-15) and reactions were initiated by addition of enzyme (0.2 nM p99 AmpC; 3 nM CTX-M-15). The decrease in the absorbance at λ260 nm was recorded continuously on a BioTek Powerwave XS2 microplate reader. […] Reaction progress was monitored by measuring the reduction in absorbance at λ300 nm in continuous fashion. […] Time courses for reaction progress were fit to the following equation, using Prism 7.04 (GraphPad Software, LaJolla, USA) to obtain kobs:
Enzyme and inhibitor were incubated at room temperature for 10 minutes. Enzyme:inhibitor complexes were then diluted 800-fold into reaction buffer (50 mM Hepes, pH 7.0, 0.1 mg/ml BSA), and 20 μL of the diluted reaction immediately added to 180 μl of 110 μM nitrocefin in a 96-well microtiter plate, and the absorbance at λ 486 nm measured continuously on a BioTek Powerwave XS2 microplate reader. The resulting progress curves were fit to a single exponential, from which koff was derived.

[12] = Metabolic stability in intestinal S9; assay type: in vitro ADME, Sprague-Dawley rat; conditions: Sprague-Dawley, intestinal S9; Rat; test conc. 3 μM
OXA-1 = target: T2, OXA-1 (Escherichia coli, UniProt P13661); experiment: Beta-lactamase enzyme inhibition (IC50); assay type: biochemical
T2 construct: expressed as native untagged proteins; made in house; host or cells: E. coli BL21(DE3)
Description: (§2) An equal volume of diluted enzyme stock was added, and the plates were incubated at 37° C. for 15 min. Nitrocefin was used as substrate for p99 AmpC, CMY-2, IMP-1, VIM-2 and OXA-1 and OXA-48, and dispensed into each well at a final concentration of 100 μM. Absorbance at 486 nm was immediately monitored for 10 min using a Biotek Powerwave XS2 microplate spectrophotometer using the GEN5 software package (Biotek Instruments, Winooski VT). […] Maximum rates of hydrolysis were compared to those in control wells (without inhibitors), and percentages of enzyme inhibition were calculated for each concentration of inhibitor. The concentration of inhibitor needed to reduce the initial rate of hydrolysis of substrate by 50% (IC50) was calculated as the residual activity of beta-lactamase at 486 nm using GraFit version 7 kinetics software package (Erithacus Software, Surrey, UK).

VIM-2 = target: T3, VIM-2 (Escherichia coli, UniProt Q5U7L7); experiment: Beta-lactamase enzyme inhibition (IC50); assay type: biochemical
T3 construct: expressed as native untagged proteins; made in house; host or cells: E. coli BL21(DE3)
Description: For VIM-2 metallo beta-lactamase, the procedure was identical with the following exceptions, first the protein was not pH adjusted to pH 5 with 50 mM sodium acetate, second, the chromatography step was changed to a 5 ml Q sepharose anion exchange column pre-equilibrated with 50 mM Hepes pH 7.5, and elution of the protein was achieved by a linear gradient of NaCl (0-600 mM). Finally, the VIM-2 purification required a second run (3rd step) on the Q sepharose anion exchange column to achieve acceptable purity (>90%).

NDM-1 = target: T4, NDM-1 (Klebsiella pneumoniae, UniProt C7C422); experiment: Beta-lactamase enzyme inhibition (IC50); assay type: biochemical
T4 construct: expressed as native untagged proteins; made in house; host or cells: E. coli BL21(DE3)
Description: as §2

[13] = Single dose plasma pharmacokinetics (fasted and non-fasted); assay type: in vivo, Cynomolgus monkeys; conditions: male, Cynomolgus, cynomolgus monkey, iv, 5 mg/kg
[14] = Metabolic stability in liver S9; assay type: in vitro ADME, Sprague-Dawley rat; conditions: Sprague-Dawley, liver S9; Rat; test conc. 3 μM
[15] = Metabolic stability in plasma; assay type: in vitro ADME, CD-1 mouse; conditions: CD-1, plasma; Mouse; test conc. 3 μM
[16] = Metabolic stability in plasma; assay type: in vitro ADME; conditions: Sprague-Dawley, Rat, test conc. 3 μM
IMP-1 = target: T5, IMP-1 (Serratia marcescens, UniProt P52699); experiment: Beta-lactamase enzyme inhibition (IC50); assay type: biochemical
T5 construct: expressed as native untagged proteins; made in house; host or cells: E. coli BL21(DE3)
Description: E. coli BL21(DE3) bacterial cells carrying expression plasmids for the individual beta-lactamases (SHV-5, KPC-2, p99AmpC, CTX-M-15, CMY-2, IMP-1, NDM-1, VIM-2, OXA-1, and OXA 48; expressed as native untagged proteins), were grown in 1 L of Superbroth (Teknova Inc. Hollister, CA) supplemented with 100 μg/mL kanamycin selection and 1×5052 (0.5% glycerol, 0.05% glucose and 0.2% α-lactose) at 35° C. for 18-20 hours. Cells were harvested by centrifugation (4,000×g, 4° C., 20 min) and resuspended in 50 mL of 10 mM HEPES pH 7.5 ( 1/20 of the initial volume). The cells were lysed by sonication (5 pulses of 45 seconds) at 45 W on ice. The lysates were clarified by centrifugation at 10,000×g for 40 minutes at 4° C. […] Active fractions were pooled, concentrated, quantitated by BCA protein determination (Thermo Scientific, Rockford, IL), dialyzed into PBS and frozen at −80° C. in 20% glycerol until use.
An equal volume of diluted enzyme stock was added, and the plates were incubated at 37° C. for 15 min. […] Absorbance at 486 nm was immediately monitored for 10 min using a Biotek Powerwave XS2 microplate spectrophotometer using the GEN5 software package (Biotek Instruments, Winooski VT). […] Maximum rates of hydrolysis were compared to those in control wells (without inhibitors), and percentages of enzyme inhibition were calculated for each concentration of inhibitor. […]

[17] = Single dose plasma pharmacokinetics (fasted and non-fasted); assay type: in vivo, Sprague-Dawley rats; conditions: Sprague-Dawley, rat, iv, 5 mg/kg

T1 sequence (P05364 21-381): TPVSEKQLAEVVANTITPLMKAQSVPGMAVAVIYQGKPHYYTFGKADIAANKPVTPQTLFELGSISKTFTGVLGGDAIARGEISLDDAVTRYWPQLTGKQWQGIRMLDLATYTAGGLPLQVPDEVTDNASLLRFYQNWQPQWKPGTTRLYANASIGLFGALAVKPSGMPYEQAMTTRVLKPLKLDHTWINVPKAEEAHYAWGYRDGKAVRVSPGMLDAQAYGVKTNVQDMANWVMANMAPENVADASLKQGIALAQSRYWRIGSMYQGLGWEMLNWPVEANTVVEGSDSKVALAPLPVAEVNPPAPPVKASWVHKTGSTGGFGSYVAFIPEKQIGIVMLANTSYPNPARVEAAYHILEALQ
T5 sequence (P52699 19-246 limits assumed): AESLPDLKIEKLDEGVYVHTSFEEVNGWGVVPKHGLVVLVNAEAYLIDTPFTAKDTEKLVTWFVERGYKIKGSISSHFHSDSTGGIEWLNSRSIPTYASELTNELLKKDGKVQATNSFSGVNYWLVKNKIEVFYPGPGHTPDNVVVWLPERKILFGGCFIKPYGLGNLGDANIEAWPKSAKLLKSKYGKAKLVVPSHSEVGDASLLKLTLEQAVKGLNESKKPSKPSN
T2 sequence (P13661 26-276): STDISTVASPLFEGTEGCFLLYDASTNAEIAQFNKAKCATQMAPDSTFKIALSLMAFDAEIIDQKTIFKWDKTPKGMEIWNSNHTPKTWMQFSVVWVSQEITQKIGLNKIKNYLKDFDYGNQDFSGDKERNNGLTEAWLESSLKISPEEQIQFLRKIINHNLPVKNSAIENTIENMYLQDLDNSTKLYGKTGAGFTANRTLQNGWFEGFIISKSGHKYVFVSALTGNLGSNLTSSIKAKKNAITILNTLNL
T4 sequence (C7C422 29-270 limits assumed): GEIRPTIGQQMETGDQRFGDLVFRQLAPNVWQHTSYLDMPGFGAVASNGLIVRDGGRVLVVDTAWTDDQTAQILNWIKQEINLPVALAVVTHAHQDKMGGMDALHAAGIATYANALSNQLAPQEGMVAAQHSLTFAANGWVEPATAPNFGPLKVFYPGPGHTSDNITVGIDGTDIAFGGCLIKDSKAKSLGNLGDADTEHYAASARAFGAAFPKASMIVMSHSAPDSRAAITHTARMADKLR

## Nc1nc(/C(=C/CC(=O)O)C(=O)N[C@@H]2C(=O)N3C(C(=O)O)=CCS[C@H]23)cs1 [Ceftibuten, ceftibuten, reference compound]
[1]; 3 mg/kg
  Log10 Change in CFU/Sample vs. untreated controls, Day 7, Bladder: −0.03 Log10 CFU/Sample
  Log10 Change in CFU/Sample vs. untreated controls, Day 7, Kidneys: −0.44 Log10 CFU/Sample
  Log10 Change in CFU/Sample vs. untreated controls, Day 7, Urine: −1.24 Log10 CFU/Sample
[1]; 10 mg/kg
  Log10 Change in CFU/Sample vs. untreated controls, Day 7, Bladder: −1.51 Log10 CFU/Sample
  Log10 Change in CFU/Sample vs. untreated controls, Day 7, Kidneys: −1.55 Log10 CFU/Sample
  Log10 Change in CFU/Sample vs. untreated controls, Day 7, Urine: −0.59 Log10 CFU/Sample
[1]; 30 mg/kg
  Log10 Change in CFU/Sample vs. untreated controls, Day 7, Bladder: −2.08 Log10 CFU/Sample
  Log10 Change in CFU/Sample vs. untreated controls, Day 7, Kidneys: −1.57 Log10 CFU/Sample
  Log10 Change in CFU/Sample vs. untreated controls, Day 7, Urine: −2.28 Log10 CFU/Sample
[1]; 100 mg/kg, SC twice daily for 3 days
  reduction of bacterial load in the kidneys (average): 2.11 log10 CFU
[1]; 100 mg/kg
  Log10 Change in CFU/Sample vs. untreated controls, Day 7, Bladder: −2.26 Log10 CFU/Sample
  Log10 Change in CFU/Sample vs. untreated controls, Day 7, Kidneys: −2.11 Log10 CFU/Sample
  Log10 Change in CFU/Sample vs. untreated controls, Day 7, Urine: −2.54 Log10 CFU/Sample
[1]; 300 mg/kg
  Log10 Change in CFU/Sample vs. untreated controls, Day 7, Bladder: −1.83 Log10 CFU/Sample
  Log10 Change in CFU/Sample vs. untreated controls, Day 7, Kidneys: −2.14 Log10 CFU/Sample
  Log10 Change in CFU/Sample vs. untreated controls, Day 7, Urine: −3.37 Log10 CFU/Sample
[2]
  MIC: > 128 µg/mL
[3]; ESBL-expressing (n = 33)
  Number of strains at MIC value 0.5 mg/L: 2
  Number of strains at MIC value 1 mg/L: 4
  Number of strains at MIC value 2 mg/L: 2
  Number of strains at MIC value 4 mg/L: 8
  Number of strains at MIC value 8 mg/L: 5
  Number of strains at MIC value 16 mg/L: 1
  Number of strains at MIC value […]: 2 and 3
  Number of strains at MIC value ≤0.06 mg/L: 0
  Number of strains at MIC value ≥32 mg/L: 6
[3]; iv
  MIC50: 4 µg/mL (≈ 9.75 µM)
  MIC90: ≥ 32 µg/mL
[4]; AmpC/CMY-expressing (n = 44)
  Number of strains at MIC value 0.5 mg/L: 0
  Number of strains at MIC value 1 mg/L: 1
  Number of strains at MIC value 2 mg/L: 5
  Number of strains at MIC value 4 mg/L: 3
  Number of strains at MIC value 8 mg/L: 7
  Number of strains at MIC value 16 mg/L: 7
  Number of strains at MIC value […]: 0
  Number of strains at MIC value ≤0.06 mg/L: 1
  Number of strains at MIC value ≥32 mg/L: 20
[4]; iv
  MIC50: ≥ 32 µg/mL
  MIC90: ≥ 32 µg/mL

## O=C(O)[C@H]1/C(=C/CO)O[C@@H]2CC(=O)N21 [Clavulanic acid, clavulanic acid, reference compound]
[5]
  MIC50: 0.5 µg/mL
  MIC90: 2 µg/mL
[6]
  MIC50: 8 µg/mL
  MIC90: > 32 µg/mL
[7]
  MIC50: 4 µg/mL
  MIC90: 32 µg/mL
[8]
  MIC50: 2 µg/mL
  MIC90: > 32 µg/mL

## CCC(=O)N[C@H]1Cc2cccc(C(=O)O)c2OB1O [Compound 2, (R)-2-hydroxy-3-propionamido-3,4-dihydro-2H-benzo[e][1,2]oxaborinine-8-carboxylic acid]
[9]
  half-life at 3 μM: > 2 h
[10]; ceftibuten 300 mg q8h human-simulated regimen with Compound 2 q8h
  rescue of ceftibuten activity: rescued ceftibuten activity in all 21 beta-lactamase-expressing strains
[10]; ceftibuten 300 mg q8h human-simulated regimen, interquartile range 3.06-18.56
  Compound 2 median exposure at which net bacterial stasis was achieved: 8.98 mg·h/L
[11]
  half-life at 3 μM: > 2 h
p99 AmpC
  k−2: 24 ± 0.5 10^−4 s^−1
  t1/2: 5.0 ± 0.1 min
[12]
  half-life at 3 μM: > 2 h
OXA-1
  IC50: 0.066 µM
VIM-2
  IC50: 9.04 µM
NDM-1
  IC50: 38.1 µM
[13]
  AUC(0-inf): 38400 ng·h/mL
  Cmax: 38600 ng/mL
[14]
  half-life at 3 μM: > 2 h
[15]
  half-life at 3 μM: > 2 h
[16]
  half-life at 3 μM: > 2 h
[5]
  MIC50: 0.25 µg/mL
  MIC90: 0.5 µg/mL
[6]
  MIC50: 0.125 µg/mL
  MIC90: 0.5 µg/mL
[7]
  MIC50: 0.25 µg/mL
  MIC90: 1 µg/mL
[8]
  MIC50: 0.25 µg/mL
  MIC90: 1 µg/mL
IMP-1
  IC50: > 100 µM
[17]
  AUC(0-inf): 3710 ng·h/mL
  Cmax: 7100 ng/mL
